Earlier results as cited in US20200330379A1, “NON-ORAL CANNABINOID FORMULATION AND METHOD OF TREATMENT” (Navinta NV, Inc., priority 2019, published 2020).

Details: limited by first-pass metabolism

## CCCCCc1cc(O)c2c(c1)OC(C)(C)[C@@H]1CCC(C)=C[C@@H]21 [THC, (6aR,10aR)-6,6,9-trimethyl-3-pentyl-6a,7,8,10a-tetrahydro-6H-benzo[c]-chromen-1-ol]
  Oral bioavailability: 10% and 20
